In ChEMBL document CHEMBL4011659, “Combining Elements from Two Antagonists of Formyl Peptide Receptor 2 Generates More Potent Peptidomimetic Antagonists” (J Med Chem, 2017):
Active and inactive are the calls of the source. The rule behind the calls is not given here.

Columns and labels:
[1] = biological target: T1, N-formyl peptide receptor 2 (Homo sapiens) (UniProt P25090); settings: 100 nM
T1 sequence (whole entry): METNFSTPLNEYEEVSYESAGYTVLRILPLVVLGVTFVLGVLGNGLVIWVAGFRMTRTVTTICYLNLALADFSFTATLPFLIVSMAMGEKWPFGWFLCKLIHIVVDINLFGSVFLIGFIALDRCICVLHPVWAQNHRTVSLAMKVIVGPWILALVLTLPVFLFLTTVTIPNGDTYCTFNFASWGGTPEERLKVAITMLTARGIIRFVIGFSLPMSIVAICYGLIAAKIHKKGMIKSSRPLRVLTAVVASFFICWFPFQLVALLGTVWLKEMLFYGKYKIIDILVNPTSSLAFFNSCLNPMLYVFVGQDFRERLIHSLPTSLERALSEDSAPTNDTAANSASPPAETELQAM
Description: Antagonist activity at FPR2 in human peripheral blood polymorphonuclear neutrophils assessed as inhibition of Lau-Aoc-(Lys-betaNphe)6-NH2-induced ROS production at 100 nM preincubated for 5 mins followed Lau-Aoc-(Lys-betaNphe)6-NH2 stimulation by isoluminol/HRP-based chemiluminescence assay

[2] = biological target: T1, N-formyl peptide receptor 2 (Homo sapiens); settings: 100 nM; remark: listed apart in the source
Description: Antagonist activity at FPR2 in human peripheral blood polymorphonuclear neutrophils assessed as inhibition of PSMalpha2-peptide induced ROS production at 100 nM preincubated for 5 mins followed PSMalpha2-peptide stimulation by isoluminol/HRP-based chemiluminescence assay

[3] = biological target: T2, fMet-Leu-Phe receptor (Homo sapiens) (UniProt P21462); test: (§1) Antagonist activity at FPR1 in human peripheral blood polymorphonuclear neutrophils assessed as inhibition of fMLF-induced ROS production at 500 nM preincubated for 5 mins followed fMIFL stimulation by isoluminol/HRP-based chemiluminescence assay
T2 sequence (whole entry): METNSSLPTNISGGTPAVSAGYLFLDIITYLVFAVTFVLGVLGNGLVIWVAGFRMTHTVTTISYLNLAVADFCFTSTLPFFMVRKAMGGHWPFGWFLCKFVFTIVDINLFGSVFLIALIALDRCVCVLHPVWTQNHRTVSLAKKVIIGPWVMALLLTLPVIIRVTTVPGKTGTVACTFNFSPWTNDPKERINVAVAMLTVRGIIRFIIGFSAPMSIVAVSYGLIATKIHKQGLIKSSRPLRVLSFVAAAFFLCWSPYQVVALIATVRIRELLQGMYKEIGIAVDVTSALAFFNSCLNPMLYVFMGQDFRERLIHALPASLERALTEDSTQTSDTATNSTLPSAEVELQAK

[4] = biological target: T3, N-formyl peptide receptor 2 (Homo sapiens, UniProt P25090); test: (§2) Antagonist activity at FPR2 in human peripheral blood polymorphonuclear neutrophils assessed as inhibition of WKYMVM-peptide induced ROS production preincubated for 5 mins followed WKYMVM-peptide stimulation by isoluminol/HRP-based chemiluminescence assay
T3 sequence (P25090 whole entry): T1 sequence (whole entry)

[5] = biological target: T1, N-formyl peptide receptor 2 (Homo sapiens); settings: 100 nM; remark: listed apart in the source
Description: Antagonist activity at FPR2 in human peripheral blood polymorphonuclear neutrophils assessed as inhibition of WKYMVM-induced ROS production at 100 nM preincubated for 5 mins followed Lau-Aoc-(Lys-betaNphe)6-NH2 stimulation by isoluminol/HRP-based chemiluminescence assay

[6] = biological target: T2, fMet-Leu-Phe receptor (Homo sapiens); test: Antagonist activity at FPR1 in human peripheral blood polymorphonuclear neutrophils assessed as inhibition of fMIFL-induced ROS production at 500 nM preincubated for 5 mins followed fMIFL stimulation by isoluminol/HRP-based chemiluminescence assay
[7] = biological target: T2, fMet-Leu-Phe receptor (Homo sapiens); test: as §1, with “N-(4-chlorophenyl)-N'-(5-isopropyl-1-methyl-3-oxo-2-phenyl-2,3-dihydro-1H-pyrazol-4-yl)urea-induced” for “fMLF-induced”, “N-(4-chlorophenyl)-N'-(5-isopropyl-1-methyl-3-oxo-2-phenyl-2,3-dihydro-1H-pyrazol-4-yl)urea” for “fMIFL”
[8] = biological target: T1, N-formyl peptide receptor 2 (Homo sapiens); settings: 100 nM; remark: listed apart in the source
Description: Antagonist activity at FPR2 in human peripheral blood polymorphonuclear neutrophils assessed as inhibition of F2Pal10-induced ROS production at 100 nM preincubated for 5 mins followed F2Pal10 stimulation by isoluminol/HRP-based chemiluminescence assay

[9] = biological target: T2, fMet-Leu-Phe receptor (Homo sapiens); test: Antagonist activity at FPR1 in human peripheral blood polymorphonuclear neutrophils assessed as inhibition of fMLF-induced ROS production at <500 nM preincubated for 5 mins followed fMLF stimulation by isoluminol/HRP-based chemiluminescence assay
[10] = biological target: T1, N-formyl peptide receptor 2 (Homo sapiens); settings: 100 nM; remark: listed apart in the source
Description: Displacement of Cy5-WKYMVM from FPR2 in human peripheral blood polymorphonuclear neutrophils at 100 nM preincubated for 10 mins followed by Cy5-WKYMVM addition measured after 60 mins by fluorescence based assay

[11] = biological target: T2, fMet-Leu-Phe receptor (Homo sapiens); test: Antagonist activity at FPR1 in human peripheral blood polymorphonuclear neutrophils assessed as inhibition of fMLF-induced ROS production at >= 500 nM preincubated for 5 mins followed fMLF stimulation by isoluminol/HRP-based chemiluminescence assay
Neutrophil = test: Inhibition of PMA-induced superoxide production in human peripheral blood polymorphonuclear neutrophils at 500 nM preincubated for 5 mins followed PMA stimulation by isoluminol/HRP-based chemiluminescence assay; type: functional, cell-based
[12] = biological target: T1, N-formyl peptide receptor 2 (Homo sapiens); test: as §2

| SMILES | inhibition [1] | inhibition [2] | inhibition [3] | IC50 [4] [nM] | inhibition [5] | inhibition [6] | inhibition [7] | inhibition [8] | inhibition [9] | inhibition [10] | inhibition [11] | inhibition (Neutrophil) | inhibition [12] |
| --- | --- | --- | --- | --- | --- | --- | --- | --- | --- | --- | --- | --- | --- |
| CCN(CC)c1ccc2c(-c3ccccc3C(=O)N[C@@H](CCCCN)C(=O)N(CCC(=O)N[C@@H](CCCCN)C(=O)N(CCC(=O)N[C@@H](CCCCN)C(=O)N(CCC(=O)N[C@@H](CCCCN)C(=O)N(CCC(=O)N[C@@H](CCCCN)C(=O)N(CCC(=O)N[C@@H](CCCCN)C(=O)N(CCC(N)=O)Cc3ccccc3)Cc3ccccc3)Cc3ccccc3)Cc3ccccc3)Cc3ccccc3)Cc3ccccc3)c3ccc(=[N+](CC)CC)cc-3oc2c1 | Active | Active | inactive | 15 | Active | inactive | inactive | Active | inactive | Active |  |  |  |
| CCN(CC)c1ccc2c(-c3ccccc3C(=O)N[C@@H](CCCCN)C(=O)N(CCC(=O)N[C@@H](CCCCN)C(=O)N(CCC(=O)N[C@@H](CCCCN)C(=O)N(CCC(=O)N[C@@H](CCCCN)C(=O)N(CCC(=O)N[C@@H](CCCCN)C(=O)N(CCC(=O)N[C@@H](CCCCN)C(=O)N(CCC(N)=O)Cc3ccc(C(F)(F)F)cc3)Cc3ccc(C(F)(F)F)cc3)Cc3ccc(C(F)(F)F)cc3)Cc3ccc(C(F)(F)F)cc3)Cc3ccc(C(F)(F)F)cc3)Cc3ccc(C(F)(F)F)cc3)c3ccc(=[N+](CC)CC)cc-3oc2c1 |  |  |  | 94 |  |  |  |  |  |  | Active | Active |  |
| CCN(CC)c1ccc2c(-c3ccccc3C(=O)N[C@@H](CCC(N)=O)C(=O)N[C@@H](CCCNC(=N)N)C(=O)N[C@@H](CC(C)C)C(=O)N[C@@H](Cc3ccccc3)C(=O)N[C@@H](CCC(N)=O)C(=O)N[C@@H](C(=O)N[C@@H](CCCCN)C(=O)NCC(=O)N[C@@H](CCCNC(=N)N)C(=O)N[C@@H](CCCNC(=N)N)C(N)=O)C(C)C)c3ccc(=[N+](CC)CC)cc-3oc2c1 |  |  |  |  |  |  |  |  |  |  |  |  | Active |
